Assay results as given in article PMC9322189, “Development of a Personalized Tumor Neoantigen Based Vaccine Formulation (FRAME-001) for Use in a Phase II Trial for the Treatment of Advanced Non-Small Cell Lung Cancer” (Pharmaceutics, 2022).
Blank lines part the entries; values can stand above or below the sequence they belong to. No end group written: not given here.

Key:
Type in all cases: physicochemical
[1] = Freeze–thaw stability of model peptides, UPLC-MS; conditions: 150 µg/mL in PBS, two freeze–thaw cycles, fivefold on three consecutive days
Description: A UPLC-MS system was used for the development and validation of the stability-indicating analytical method. The apparatus, column, flow rate, mobile phase A, mobile phase B, mass acquisition, and sample run time were: UPLC UltiMate 3000 RSLC System (Thermo Fisher Scientific, Waltham, MA, USA) coupled to a Q Exactive Orbitrap Mass Spectrometers (Thermo Fisher Scientific, Waltham, MA, USA); Acquity UPLC Peptide CSH C18, 130 Å, 1.7 µm, 2.1 mm × 150 mm (Waters Corporation, Milford, MA, USA); 0.40 mL/min; 0.013% ammonium formate and 0.1% formic acid dissolved in ultrapure water (pH 2.8); 0.013% ammonium formate and 0.1% formic acid dissolved in a mixture of 0.495:0.495:0.10 methanol, acetonitrile, and ultrapure water; masses scanned from 300.0–1900.0 m/z; 15 min; respectively. The mobile phase gradient started at t0 min with 98% of mobile phase A that was gradually adjusted to 40% at t9 min. At t9.1 min, mobile phase A was set at 2% till t11.1 min. At t11.2 min, mobile phase A was set at 98% until the end of the sample run time.
For each peptide, six stock concentrations in the range of 5–225 µg/mL dissolved in PBS were made. The linear relationship of the calibration curves was investigated by regression analysis. The linear correlation coefficient (R^2), goodness of fit, and lack of fit were analyzed. For the accuracy and precision tests, samples of 50 µg/mL, 150 µg/mL, and 225 µg/mL were analyzed in triplicate on three consecutive days to determine the closeness of agreement of the measurements compared to the analyzed concentrations (accuracy % bias) and repeated experiments (relative standard deviations (RSD)). For the sensitivity test, peptide samples at 5 µg/mL were analyzed in triplicate on three consecutive days and the signal-to-noise (S/N) ratio was calculated from representative chromatograms. For the freeze–thaw experiment, samples at 150 µg/mL for each of the three peptides were prepared and analyzed in fivefold on three consecutive days after each sample was subjected to two freeze–thaw cycles before the analysis was initiated.

[2] = Release testing and long-term (frozen) stability of aqueous peptide mixtures (143 µg/mL per peptide in PBS 10 mM pH 7.0), UPLC-MS
[3] = In-use stability of thawed aqueous peptide mixtures at room temperature, UPLC-MS; conditions: 4 h room temperature
[4] = Filter experiment: peptide adsorption to the 0.22 µm sterilization filter, UPLC-MS

- Freeze–thaw stability, average bias [1]: 8%
Sequence: SVTNTSLAHELWKVPLHLKTSLLRPAHLRD [FRM001P02]

- Peptide peak ratio ([2]; in FRM001-M2, 2 w −25 °C): 7.2%
- Peptide peak ratio ([2]; in FRM001-M2, 4 w −25 °C): 11.5%
- Peptide peak ratio ([2]; in FRM001-M2, 8 w −25 °C): 11.0%
- Peptide peak ratio ([2]; in FRM001-M2, 8 w −80 °C): 12.9%
- Peptide peak ratio ([2]; in FRM001-M2, 12 w −25 °C): 14.2%
- Peptide peak ratio ([2]; in FRM001-M2, 12 w −80 °C): 13.8%
- Peptide peak ratio ([2]; in FRM001-M2, 16 w −25 °C): 9.6%
- Peptide peak ratio ([2]; in FRM001-M2, 16 w −80 °C): 10.4%
- Peptide peak ratio ([2]; in FRM001-M2, 32 w −25 °C): 10.8%
- Peptide peak ratio ([2]; in FRM001-M2, 32 w −80 °C): 10.7%
- Peptide peak ratio ([2]; in FRM001-M2, t = 0 w): 9.1%
- Peptide peak ratio ([3]; in FRM001-M2, 2 w −25 °C): 8.9%
- Peptide peak ratio ([3]; in FRM001-M2, 4 w −25 °C): 12.1%
- Peptide peak ratio ([3]; in FRM001-M2, 8 w −25 °C): 12.1%
- Peptide peak ratio ([3]; in FRM001-M2, 8 w −80 °C): 12.0%
- Peptide peak ratio ([3]; in FRM001-M2, 12 w −25 °C): 13.7%
- Peptide peak ratio ([3]; in FRM001-M2, 12 w −80 °C): 13.2%
- Peptide peak ratio ([3]; in FRM001-M2, 16 w −25 °C): 10.2%
- Peptide peak ratio ([3]; in FRM001-M2, 16 w −80 °C): 10.1%
- Peptide peak ratio ([3]; in FRM001-M2, 32 w −25 °C): 9.6%
- Peptide peak ratio ([3]; in FRM001-M2, 32 w −80 °C): 9.3%
- Peak ratio ([4]; in FRM001M2, unfiltered sample): 6.1%
Sequence: NTDPSCSCVTPLDFNHCLKNREDNGLPMLS [FRM001P10, neoantigen peptide, in FRM001-M2]

- Peptide peak ratio ([2]; in FRM001-M1, 2 w −25 °C): 11.2%
- Peptide peak ratio ([2]; in FRM001-M1, 4 w −25 °C): 10.5%
- Peptide peak ratio ([2]; in FRM001-M1, 8 w −25 °C): 10.9%
- Peptide peak ratio ([2]; in FRM001-M1, 8 w −80 °C): 10.8%
- Peptide peak ratio ([2]; in FRM001-M1, 12 w −25 °C): 11.9%
- Peptide peak ratio ([2]; in FRM001-M1, 16 w −25 °C): 10.1%
- Peptide peak ratio ([2]; in FRM001-M1, 16 w −80 °C): 10.7%
- Peptide peak ratio ([2]; in FRM001-M1, 32 w −25 °C): 7.5%
- Peptide peak ratio ([2]; in FRM001-M1, 32 w −80 °C): 11.8%
- Peptide peak ratio ([2]; in FRM001-M1, t = 0 w, % area of peptide peak of sum of the six peptide peaks): 10.8%
- Peptide peak ratio ([3]; in FRM001-M1, 2 w −25 °C): 11.3%
- Peptide peak ratio ([3]; in FRM001-M1, 4 w −25 °C): 10.5%
- Peptide peak ratio ([3]; in FRM001-M1, 8 w −25 °C): 10.8%
- Peptide peak ratio ([3]; in FRM001-M1, 8 w −80 °C): 10.7%
- Peptide peak ratio ([3]; in FRM001-M1, 12 w −25 °C): 11.2%
- Peptide peak ratio ([3]; in FRM001-M1, 12 w −80 °C): 11.2%
- Peptide peak ratio ([3]; in FRM001-M1, 16 w −25 °C): 10.5%
- Peptide peak ratio ([3]; in FRM001-M1, 16 w −80 °C): 10.6%
- Peptide peak ratio ([3]; in FRM001-M1, 32 w −25 °C): 10.9%
- Peptide peak ratio ([3]; in FRM001-M1, 32 w −80 °C): 11.5%
- Peak ratio ([4]; in FRM001M1, filtered (0.22 µm Millex GV)): 10.8%
- Peak ratio ([4]; in FRM001M1, unfiltered sample): 10.9%
Sequence: RHSPNGNGPRSQHHSLITTNTDPSCSCVT [FRM001P14, neoantigen peptide, in FRM001-M1]

- Peptide peak ratio ([2]; in FRM001-M2, 2 w −25 °C): 22.0%
- Peptide peak ratio ([2]; in FRM001-M2, 4 w −25 °C): 19.5%
- Peptide peak ratio ([2]; in FRM001-M2, 8 w −25 °C): 19.6%
- Peptide peak ratio ([2]; in FRM001-M2, 8 w −80 °C): 20.5%
- Peptide peak ratio ([2]; in FRM001-M2, 12 w −25 °C): 18.1%
- Peptide peak ratio ([2]; in FRM001-M2, 12 w −80 °C): 20.0%
- Peptide peak ratio ([2]; in FRM001-M2, 16 w −25 °C): 17.9%
- Peptide peak ratio ([2]; in FRM001-M2, 16 w −80 °C): 19.5%
- Peptide peak ratio ([2]; in FRM001-M2, 32 w −25 °C): 20.3%
- Peptide peak ratio ([2]; in FRM001-M2, 32 w −80 °C): 22.6%
- Peptide peak ratio ([2]; in FRM001-M2, t = 0 w): 24.6%
- Peptide peak ratio ([3]; in FRM001-M2, 2 w −25 °C): 23.0%
- Peptide peak ratio ([3]; in FRM001-M2, 4 w −25 °C): 20.5%
- Peptide peak ratio ([3]; in FRM001-M2, 8 w −25 °C): 21.0%
- Peptide peak ratio ([3]; in FRM001-M2, 8 w −80 °C): 21.0%
- Peptide peak ratio ([3]; in FRM001-M2, 12 w −25 °C): 19.7%
- Peptide peak ratio ([3]; in FRM001-M2, 12 w −80 °C): 20.6%
- Peptide peak ratio ([3]; in FRM001-M2, 16 w −25 °C): 18.9%
- Peptide peak ratio ([3]; in FRM001-M2, 16 w −80 °C): 20.0%
- Peptide peak ratio ([3]; in FRM001-M2, 32 w −25 °C): 22.7%
- Peptide peak ratio ([3]; in FRM001-M2, 32 w −80 °C): 24.2%
- Peak ratio ([4]; in FRM001M2, unfiltered sample): 27.7%
Sequence: CKECGRPLDVVHTLLHIRAFMLIKNPMNVK [FRM001P12, neoantigen peptide, in FRM001-M2]
